Patent US9826734B2, “Etherified lactate esters, method for the production thereof and use thereof for enhancing the effect of plant protecting agents” (Clariant International Ltd., priority 2011, dated 2017)

Experiments:
Assay type in all cases: physicochemical
[1] = Static surface tension in aqueous systems, Pending Drop Method (DSA10 Goniometer); conditions: room temperature (20° C.)
[2] = Foam behavior, foam test of CIPAC Method MT47; conditions: 3 g/l, CIPAC D water (342 ppm)
From the text: The important properties of interface-active substances include the foam behavior, particularly in aqueous systems. Virtually all surfactants foam, and the time to collapse of the foam has to be shortened in the case of critical (highly foaming) surfactants through addition of defoamers to formulation or to aqueous use preparation. The foam behavior of certain of the substances of the invention was characterized, using aqueous solutions at a concentration of 3 g/l, by the foam test of CIPAC Method MT47.

[3] = Dynamic surface tension, bubble pressure method (BP2100 tensiometer); conditions: surface age 200 milliseconds
Experimental: The dynamic surface tension was determined via the bubble pressure method (BP2100, tensiometer, Krüss). With a time span relevant for the spray application of agrochemicals in aqueous dilution (referred to as the surface age in the bubble pressure method) of 200 milliseconds, the value of the dynamic surface tension in [mN/m] correlates with the adherence on difficult-to-wet plants such as barley (cereal). A value of 50 mN/m (at 20-21° C.) produces, relative to water (72.8 mN/m), an improvement in the adherence from “zero adherence” to about 50% (Baur P, Pontzen R 2007. Basic features of plant surface wettability and deposit formation and the impact of adjuvants. In: R E Gaskin ed. Proceeding of the 8th International Symposium on Adjuvants for Agrochemicals. Publisher: International Society for Agrochemical Adjuvants (ISAA), Columbus, Ohio, USA). […] The etherified lactate esters are therefore outstandingly suitable for promoting the accommodation of agrochemicals by cereals (with maize, rice, millet), banana, cabbage/oil seed rape, soybean, and other difficult-to-wet crop plants and weed plants. The positive wetting and sticking effects also apply, of course, for other organisms and artificial surfaces and/or technical applications, for the purpose, for instance, of achieving thin coatings on, or cleaning, surfaces.

| Substance | Static surface tension ([1]; 0.3 g/l in water) | Static surface tension ([1]; 3 g/l in water) | Percentage foam volume ([2]; 10 s) | Percentage foam volume ([2]; 60 s) | Percentage foam volume ([2]; 3 min) | Percentage foam volume ([2]; 12 min) | Dynamic surface tension ([3]; 0.3 g/l in water) | Dynamic surface tension ([3]; 3 g/l in water) |
| --- | --- | --- | --- | --- | --- | --- | --- | --- |
| 2-ethylhexyl lactate 2PO/10EO | 47.43 mN/m | 36.0 mN/m | 50% | 10% | 0% | 0% | 54.2 mN/m | 37.4 mN/m |
| 2-ethylhexyl lactate 5EO | 48.65 mN/m | 32.61 mN/m | 50% | 40% | 20% | 10% | 54.4 mN/m | 35.3 mN/m |
| 2-ethylhexyl lactate 10EO | 52.99 mN/m | 35.18 mN/m | 10% | 5% | 5% | 0% | 56.6 mN/m | 46.6 mN/m |
| 2-ethylhexyl lactate 15EO | 54.33 mN/m | 42.23 mN/m | 0% | 0% | 0% | 0% | 58.6 mN/m | 48.1 mN/m |
| Lauryl lactate 5EO/5PO | 31.65 mN/m | 30.14 mN/m | – | – | – | – | 52.7 mN/m | 36.5 mN/m |

Results, then the substance that gave them:

| Static surface tension ([1]; 0.3 g/l in water) | Static surface tension ([1]; 3 g/l in water) | Percentage foam volume ([2]; 10 s) | Percentage foam volume ([2]; 60 s) | Percentage foam volume ([2]; 3 min) | Percentage foam volume ([2]; 12 min) | Dynamic surface tension ([3]; 0.3 g/l in water) | Dynamic surface tension ([3]; 3 g/l in water) | Substance |
| --- | --- | --- | --- | --- | --- | --- | --- | --- |
| 45.34 mN/m | 28.19 mN/m | 5% | 5% | 5% | 5% | 50.9 mN/m | 26.8 mN/m | 2-ethylhexyl lactate 2EO |
| 40.40 mN/m | 29.47 mN/m | 2% | 2% | 0% | 0% | 47.8 mN/m | 30.7 mN/m | 2-ethylhexyl lactate 2PO/2EO |
| 43.35 mN/m | 28.48 mN/m | 25% | 10% | 10% | 10% | 50.7 mN/m | 29.6 mN/m | 2-ethylhexyl lactate 2PO/5EO |
| 31.63 mN/m | 31.34 mN/m | – | – | – | – | 51.9 mN/m | 37.4 mN/m | Lauryl lactate 5EO/2PO |
| 30.76 mN/m | 30.71 mN/m | – | – | – | – | 54.3 mN/m | 37.7 mN/m | Lauryl lactate 8EO/2PO |
| 31.38 mN/m | 31.51 mN/m | – | – | – | – | 50.9 mN/m | 36.2 mN/m | Lauryl lactate 8EO/5PO |
